# In patent US8044073B2, “Aminobenzimidazoles and benzimidazoles as inhibitors of respiratory syncytial virus replication” (Tibotec Pharmaceuticals, priority 2003, dated 2011):
# Tested on: Respiratory Syncytial Virus
# Experiment: In vitro screening for activity against RSV (tetrazolium-based colorimetric assay, protection against viral cytopathology)
# Format: cell-based
# Settings: Table 6; numeric activity values, pEC50 (−log of EC50 in molar units)
# Source text: The percent protection against cytopathology caused by viruses (antiviral activity or EC50) achieved by tested compounds and their cytotoxicity (CC50) are both calculated from dose-response curves. The selectivity of the antiviral effect is represented by the selectivity index (SI), calculated by dividing the CC50 (cytotoxic dose for 50% of the cells) by the EC50 (antiviral activity for 50% of the cells). The tables in the above experimental part list the category to which each of the prepared compounds belong: Compounds belonging to activity category “A” have a pEC50 (−log of EC50 when expressed in molar units) equal to or more than 7. Compounds belonging to activity category “B” have a pEC50 value between 6 and 7.
# Automated tetrazolium-based colorimetric assays were used for determination of EC50 and CC50 of test compounds. Flat-bottom, 96-well plastic microtiter trays were filled with 180 μl of Eagle's Basal Medium, supplemented with 5% FCS (0% for FLU) and 20 mM Hepes buffer. Subsequently, stock solutions (7.8× final test concentration) of compounds were added in 45 μl volumes to a series of triplicate wells so as to allow simultaneous evaluation of their effects on virus- and mock-infected cells. Five five-fold dilutions were made directly in the microtiter trays using a robot system. Untreated virus controls, and HeLa cell controls were included in each test. Approximately 100 TCID50 of Respiratory Syncytial Virus was added to two of the three rows in a volume of 50 μl. The same volume of medium was added to the third row to measure the cytotoxicity of the compounds at the same concentrations as those used to measure the antiviral activity. After two hours of incubation, a suspension (4×10^5 cells/ml) of HeLa cells was added to all wells in a volume of 50 μl. The cultures were incubated at 37° C. in a 5% CO2 atmosphere. Seven days after infection the cytotoxicity and the antiviral activity was examined spectrophotometrically. To each well of the microtiter tray, 25 μl of a solution of MTT (3-(4,5-dimethylthiazol-2-yl)-2,5-diphenyltetrazolium bromide) was added. The trays were further incubated at 37° C. for 2 hours, after which the medium was removed from each cup. Solubilization of the formazan crystals was achieved by adding 100 μl 2-propanol. Complete dissolution of the formazan crystals were obtained after the trays have been placed on a plate shaker for 10 min. Finally, the absorbances were read in an eight-channel computer-controlled photometer (Multiskan MCC, Flow Laboratories) at two wavelengths (540 and 690 nm). The absorbance measured at 690 nm was automatically subtracted from the absorbance at 540 nm, so as to eliminate the effects of non-specific absorption.
# The percent protection against cytopathology caused by viruses (antiviral activity or EC50) achieved by tested compounds and their cytotoxicity (CC50) were both calculated from dose-response curves. The selectivity of the antiviral effect is represented by the selectivity index (SI), calculated by dividing the CC50 (cytotoxic dose for 50% of the cells) by the EC50 (antiviral activity for 50% of the cells).
row,Compound,Activity
1,Cc1cccc(C(=O)Nc2ccc3c(c2)ncn3Cc2nc(C)ccc2O)c1 [Compound 242],4.2
2,Cc1ccc(O)c(Cn2cnc3cc(CNCCc4cccn4C)ccc32)n1 [Compound 243],4.2
3,Cc1ccc(O)c(Cn2cnc3cc(NC(=O)Cc4ccccc4)ccc32)n1 [Compound 244],4.2
4,Cc1ccc(O)c(Cn2cnc3cc(NC(=O)C4CCN(CCN)CC4)ccc32)n1 [Compound 245],4.2
5,Cc1ccc(O)c(Cn2cnc3cc(CO)ccc32)n1 [Compound 246],<4.0
6,Cc1ccc(O)c(Cn2cnc3ccc(CO)cc32)n1 [Compound 247],<4.0
7,Cc1ccc(O)c(Cn2cnc3cc(C=Cc4ccccc4)ccc32)n1 [Compound 249],<4.0
8,Cc1ccc(O)c(Cn2cnc3cc(CCc4ccccc4)ccc32)n1 [Compound 250],<4.0
9,Cc1ccc(O)c(Cn2cnc3cc(C=CC#N)ccc32)n1 [Compound 252],<4.0
10,Cc1ccc(O)c(Cn2cnc3cc(CNCCc4ccccc4)ccc32)n1 [Compound 253],<4.0
11,Cc1ccc(O)c(Cn2cnc3cc(CNCCN(C)C)ccc32)n1 [Compound 255],<4.0
12,Cc1ccc(O)c(Cn2cnc3cc(CNCCCN4CCOCC4)ccc32)n1.Cl [Compound 258],<4.0
13,COCCCNCc1ccc2c(c1)ncn2Cc1nc(C)ccc1O [Compound 260],<4.0
14,Cc1ccc(O)c(Cn2cnc3cc(CNC4CCNCC4)ccc32)n1.Cl [Compound 262],<4.0
15,Cc1cccc(NCc2ccc3c(c2)ncn3Cc2nc(C)ccc2O)c1 [Compound 265],<4.0
16,Cc1ccc(O)c(Cn2cnc3cc(NC(=O)c4ccccc4)ccc32)n1 [Compound 266],<4.0
17,Cc1ccc(O)c(Cn2cnc3cc(NC(=O)C4CCNCC4)ccc32)n1 [Compound 267],<4.0
18,COCCNCc1ccc2c(c1)ncn2Cc1nc(C)ccc1O [Compound 269],<4.0
19,Cc1ccc(O)c(Cn2cnc3cc(CNCc4ccncc4)ccc32)n1 [Compound 270],<4.0
20,Cc1ccc(O)c(Cn2cnc3cc(CNCc4ccco4)ccc32)n1 [Compound 271],<4.0
21,Cc1ccc(O)c(Cn2cnc3cc(CNCCCc4ccccc4)ccc32)n1 [Compound 272],<4.0

row,Compound,Activity
1,Cc1ccc(O)c(Cn2cnc3cc(C(O)c4ccccc4)ccc32)n1.O=C(O)C(=O)O (stereo not drawn) [Compound 274],<4.0
2,Cc1ccc(O)c(Cn2cnc3ccc(NC(=O)Cc4ccccn4)cc32)n1 [Compound 276],<4.0
3,Cc1ccc(O)c(Cn2cnc3ccc(NC(=O)CCc4ccccc4)cc32)n1 [Compound 277],<4.0
4,Cc1ccc(O)c(Cn2cnc3ccc(NC(=O)c4cccnc4)cc32)n1 [Compound 278],<4.0
5,Cc1ccc(O)c(Cn2cnc3cc(NC(=O)c4cccnc4)ccc32)n1 [Compound 279],<4.0
6,Cc1ccc(O)c(Cn2cnc3cc(NC(=O)CCc4ccccc4)ccc32)n1 [Compound 280],<4.0
7,Cc1ccc(O)c(Cn2cnc3cc(NC(=O)Cc4ccccn4)ccc32)n1 [Compound 281],<4.0
8,CC(=O)c1cccc(NCc2ccc3ncn(Cc4nc(C)ccc4O)c3c2)c1 [Compound 282],<4.0
9,Cc1ccc(O)c(Cn2cnc3ccc(CNc4cccc(C)c4C)cc32)n1 [Compound 284],<4.0
10,Cc1ccc(O)c(Cn2cnc3ccc(CNc4ccccc4)cc32)n1 [Compound 285],<4.0
11,CC(=O)c1cccc(NCc2ccc3c(c2)ncn3Cc2nc(C)ccc2O)c1 [Compound 286],<4.0
12,Cc1ccc(O)c(Cn2cnc3cc(CNc4cccc(Br)c4)ccc32)n1 [Compound 287],<4.0
13,Cc1ccc(O)c(Cn2cnc3cc(CNc4cccc(Cl)c4)ccc32)n1 [Compound 288],<4.0
14,Cc1cc(C)cc(NCc2ccc3c(c2)ncn3Cc2nc(C)ccc2O)c1 [Compound 289],<4.0
15,Cc1ccc(O)c(Cn2cnc3cc(CNc4cc(Cl)cc(Cl)c4)ccc32)n1 [Compound 290],<4.0
16,Cc1ccc(O)c(Cn2cnc3cc(CNc4cccc5cccnc45)ccc32)n1 [Compound 291],<4.0
17,Cc1ccc(O)c(Cn2cnc3cc(CNc4cccc(C#N)c4)ccc32)n1 [Compound 292],<4.0
18,Cc1ccc(O)c(Cn2cnc3cc(CNc4cccc(F)c4)ccc32)n1 [Compound 293],<4.0
19,CCc1cccc(NCc2ccc3c(c2)ncn3Cc2nc(C)ccc2O)c1 [Compound 294],<4.0
20,Cc1ccc(O)c(Cn2cnc3cc(CNc4cccc(C)c4C)ccc32)n1 [Compound 295],<4.0
21,Cc1ccc(O)c(Cn2cnc3cc(CNc4ccccc4)ccc32)n1 [Compound 296],<4.0

# Same assay, conditions: human respiratory syncytial virus, 168 h; Table 1; RSV in HeLa cells, MTT, seven days after infection; pEC50 = -log of EC50 in molar units; read-out: Activity (converted)
row,Compound,EC50
1,"Cc1ccc(O)c(Cn2c(N)nc3ccc(CNc4cccc(OC(F)(F)F)c4)cc32)n1 [Compound 4, 2-{2-Amino-6-[(3-trifluoromethoxyphenylamino)-methyl]-benzoimidazol-1-ylmethyl}-6-methyl-pyridin-3-ol]",2.51 nM
2,"CC(=O)O.Cc1ccc(O)c(Cn2c(N)nc3ccc(CNc4ccccc4C)cc32)n1 [Compound 8, 2-[2-Amino-6-(o-tolylamino-methyl)-benzoimidazol-1-ylmethyl]-6-methyl-pyridin-3-ol acetic acid salt]",3.16 nM
3,"Cc1ccc(CCCO)c(NCc2ccc3nc(N)n(Cc4nc(C)ccc4O)c3c2)c1 [Compound 90, 2-(2-amino-6-{[2-(3-hydroxy-propyl)-5-methyl-phenylamino]-methyl}-benzimidazol-1-ylmethyl)-6-methylpyridin-3-ol]",0.0316 nM

# Same assay, conditions: human respiratory syncytial virus, 168 h; Table 3; RSV in HeLa cells, MTT, seven days after infection; pEC50 = -log of EC50 in molar units; read-out: Activity (converted)
row,Compound,EC50
1,"Cc1cccc(N(CCO)Cc2ccc3nc(N)n(Cc4nc(C)ccc4O)c3c2)c1 [Compound 129, 2-(2-amino-6-{[(2-hydroxy-ethyl)-m-tolyl-amino]-methyl}-benzoimidazol-1-ylmethyl)-6-methyl-pyridin-3-ol]",0.501 nM
2,"Cc1cccc(N(CCN)Cc2ccc3nc(N)n(Cc4nc(C)ccc4O)c3c2)c1.Cl [Compound 131, 2-(2-amino-6-{[(2-amino-ethyl)-m-tolyl-amino]-methyl}-benzoimidazol-1-ylmethyl)-6-methyl-pyridin-3-ol HCl salt]",3.98 nM
3,"Cc1ccc(O)c(Cn2c(N)nc3ccc(CN(CCC(N)=O)c4cccc(Br)c4)cc32)n1 [Compound 137, 3-[[2-Amino-3-(3-hydroxy-6-methyl-pyridin-2-ylmethyl)-3H-benzoimidazol-5-ylmethyl]-(3-bromo-phenyl)-amino]-propionamide]",0.251 nM
4,"Cc1ccc(O)c(Cn2c(N)nc3ccc(CN(CCCCO)c4cccc(Br)c4)cc32)n1 [Compound 139, 2-(2-Amino-6-{[(3-bromo-phenyl)-(4-hydroxy-butyl)-amino]-methyl}-benzoimidazol-1-ylmethyl)-6-methyl-pyridin-3-ol]",0.398 nM
5,"Cc1ccc(O)c(Cn2c(N)nc3ccc(CN(CCN4CCOCC4)c4ccccc4CCO)cc32)n1 [Compound 160, 2-(2-Amino-6-{[[2-(2-hydroxy-ethyl)-phenyl]-(2-morpholin-4-yl-ethyl)-amino]-methyl}-benzoimidazol-1-ylmethyl)-6-methyl-pyridin-3-ol]",7.94 nM

# Same assay, conditions: human respiratory syncytial virus, 168 h; table of compound 128 (scheme E); RSV in HeLa cells, MTT, seven days after infection; read-out: Activity category (converted)
row,Compound,EC50
1,Cc1ccc(CCCO)c(NCc2ccc3nc(N)n(Cc4nc(C)ccc4OCc4ccccc4)c3c2)c1 [Compound 128],126 nM

# Tested on: not given
# Experiment: not given
# Settings: not given
row,melting point,Compound
1,156 °C,"Cc1ccc(O)c(Cn2c(N)nc3ccc(CNc4cccc(OC(F)(F)F)c4)cc32)n1 [Compound 4, 2-{2-Amino-6-[(3-trifluoromethoxyphenylamino)-methyl]-benzoimidazol-1-ylmethyl}-6-methyl-pyridin-3-ol]"
2,120 °C,"CC(=O)O.Cc1ccc(O)c(Cn2c(N)nc3ccc(CNc4ccccc4C)cc32)n1 [Compound 8, 2-[2-Amino-6-(o-tolylamino-methyl)-benzoimidazol-1-ylmethyl]-6-methyl-pyridin-3-ol acetic acid salt]"
3,248 °C,"Cc1ccc(CCCO)c(NCc2ccc3nc(N)n(Cc4nc(C)ccc4O)c3c2)c1 [Compound 90, 2-(2-amino-6-{[2-(3-hydroxy-propyl)-5-methyl-phenylamino]-methyl}-benzimidazol-1-ylmethyl)-6-methylpyridin-3-ol]"
4,129 °C,Cc1ccc(CCCO)c(NCc2ccc3nc(N)n(Cc4nc(C)ccc4OCc4ccccc4)c3c2)c1 [Compound 128]
5,210 °C,"Cc1cccc(N(CCO)Cc2ccc3nc(N)n(Cc4nc(C)ccc4O)c3c2)c1 [Compound 129, 2-(2-amino-6-{[(2-hydroxy-ethyl)-m-tolyl-amino]-methyl}-benzoimidazol-1-ylmethyl)-6-methyl-pyridin-3-ol]"
6,200 °C,"Cc1cccc(N(CCN)Cc2ccc3nc(N)n(Cc4nc(C)ccc4O)c3c2)c1.Cl [Compound 131, 2-(2-amino-6-{[(2-amino-ethyl)-m-tolyl-amino]-methyl}-benzoimidazol-1-ylmethyl)-6-methyl-pyridin-3-ol HCl salt]"
7,245 °C,"Cc1ccc(O)c(Cn2c(N)nc3ccc(CN(CCC(N)=O)c4cccc(Br)c4)cc32)n1 [Compound 137, 3-[[2-Amino-3-(3-hydroxy-6-methyl-pyridin-2-ylmethyl)-3H-benzoimidazol-5-ylmethyl]-(3-bromo-phenyl)-amino]-propionamide]"
8,120 °C,"Cc1ccc(O)c(Cn2c(N)nc3ccc(CN(CCCCO)c4cccc(Br)c4)cc32)n1 [Compound 139, 2-(2-Amino-6-{[(3-bromo-phenyl)-(4-hydroxy-butyl)-amino]-methyl}-benzoimidazol-1-ylmethyl)-6-methyl-pyridin-3-ol]"
9,184 °C,"Cc1ccc(O)c(Cn2c(N)nc3ccc(CN(CCN4CCOCC4)c4ccccc4CCO)cc32)n1 [Compound 160, 2-(2-Amino-6-{[[2-(2-hydroxy-ethyl)-phenyl]-(2-morpholin-4-yl-ethyl)-amino]-methyl}-benzoimidazol-1-ylmethyl)-6-methyl-pyridin-3-ol]"
